The results in this text go back to US4088757A, “4'Alpha- and 4'beta-amino-4'-desoxyoleandrins, and pharmaceutical composition containing same” (Beiersdorf Aktiengesellschaft, priority 1976, dated 1978).

The format of series [1] is in vivo. The note with it: cat, intravenous; for preferential route of elimination (in words): tritium-marked drug; for Biliary Elimination: tritium-marked drug in feces; for Biliary Elimination / Renal Elimination: % of activity originally injected; for Renal Elimination: tritium-marked drug in urine. On the procedure: 1. The elimination rate of both drugs in the cat was tested by intravenously injecting a fixed amount of the drugs into the cat and recording the amount of tritium-marked drug appearing in the urine and feces. The results are stated as a percentage of the activity of the tritium-marked glycoside originally injected.

The subject of series [2] is papillary muscle of the guinea pig. Nature of the series: inotropic effect on the papillary muscle of the guinea pig in vitro. The note with it: Cavia porcellus, 40% ethanol and 60% water mixture, read-out: ED50 (amount of drug necessary to increase the contractile force of the muscle by 50%). On the procedure: 2. The inotropic effect of both drugs was tested on the papillary muscle of the guinea pig in vitro. The muscle was connected to a recording device and then placed in a bath of 0.1% solution of the drug to be tested in a mixture of 40% ethanol and 60% water. This solution was gradually diluted with water and a dosage versus contraction graph plotted. The amount of drug necessary to increase the contractile force of the muscle by 50% (ED50) was then calculated.

Converted amounts (≈) assume the structure as drawn.

Turning to `C[C@H]1O[C@@H](O[C@H]2[C@@H](O)C[C@H](O[C@H]3[C@@H](O)C[C@H](O[C@H]4CC[C@@]5(C)[C@H](CC[C@@H]6[C@@H]5C[C@@H](O)[C@]5(C)[C@@H](C7=CC(=O)OC7)CC[C@]65O)C4)O[C@@H]3C)O[C@@H]2C)C[C@H](O)[C@@H]1O` [digoxin], in series [1], the “preferential route of elimination (in words)” value is on record as “preferentially eliminated by the renal system”, the “Biliary Elimination” value worked out at 4.7% and the “Renal Elimination” value was determined as 6.3%. In addition, in series [2], the EC50 amounted to 1.1 µg/mL (≈ 1.41 µM).
On to `COC1CC(OC2CCC3(C)C(CCC4C3CCC3(C)C(C5=CC(=O)OC5)C(OC(C)=O)CC43O)C2)OC(C)C1N` (centres unmarked) [4'-amino-4'-desoxy-oleandrin], for which, in series [1], the “preferential route of elimination (in words)” value is “preferentially eliminated by the biliary system”, the “Biliary Elimination” value was 11.1% and the “Renal Elimination” value came to 2.5%. Moreover, the EC50 in series [2] was found to be 0.13 µg/mL (≈ 0.226 µM).
